Reference: paper PMC4643019, “Imaging Sites of Inhibition of Proteolysis in Pathomimetic Human Breast Cancer Cultures by Light-Activated Ruthenium Compound” (PLoS ONE, 2015)
pIC50: −log10 of the molar value. “Also recorded” adds a separate entry of the source. Read-outs that look alike come from different tables or passages of the source. Values belong to the molecule of their own block, whether it stands above or below them.

Assays:
cathepsin L = tested on: cathepsin L; design: method as in PMID 12437121; conditions: cited from earlier work
[1] = not told; cited from earlier work
[2] = tested on: MDA-MB-231 3D MAME cultures; test: Live-cell proteolysis assay (DQ-collagen IV) in 3D MAME cultures, MDA-MB-231; type: cell-based, human
Protocol: (§1) Proteolytic cleavage of DQ-collagen IV substrate (Invitrogen, Carlsbad, CA, USA) by live TNBC cells was imaged in real time and quantified as previously described. Briefly, glass coverslips were coated with 50 μl of 16.4 mg/ml Cultrex^TM containing 25 μg/ml DQ-collagen IV and incubated for 15 min at 37°C to solidify. TNBC cells (1.0 x 10^4) were seeded onto coated glass coverslips and incubated for 60 min. Medium containing 2% Cultrex^TM was added to the cells. The sample was added every 48 h. […] Where indicated, assays were performed in the presence of CA074 and CA074Me (5 μM each) (Peptides International, Louisville, KY, USA), compound 1 or compound 2. For experiments with the caged inhibitor, cells were exposed to dark (no irradiation) and light (irradiation at 250 W, 395–750 nm) conditions for 45 min with a tungsten halogen lamp and H2O filter on separate plates. After 4 days of culture, optical sections through the entire depth of the 3D structures were acquired on a confocal microscope and, reconstructed in 3D using Volocity software. At the time of imaging cells were stained with CellTracker Orange and nuclei with Hoechst 33342. Volocity software was used to determine cellular boundaries in each confocal slice and generate a “cytoplasmic mask” as well as to count nuclei. The intensity of DQ-collagen IV degradation fragments per cell was quantified in the entire 3D volume. Degradation fragments were segmented into those present inside or surrounding the cells by using image arithmetic as we have previously described in detail.

Hs578T 3D MAME cultures [3] = test: Live-cell proteolysis assay (DQ-collagen IV) in 3D MAME cultures, Hs578T; type: cell-based, human
Protocol: as §1

[4] = molecular target: T1, CTSB purified from human liver (Homo sapiens, UniProt P07858); test: Cathepsin B activity assay with purified enzyme (Z-Arg-Arg-AMC); type: biochemical; conditions: for pIC50: CTSB 10 nM, substrate 150 μM
T1 construct: CTSB purified from human liver was purchased from Athens Research & Technology; purchased Athens Research & Technology (Athens, GA, USA); host or cells: human liver (tissue-purified)
Protocol: CTSB purified from human liver was purchased from Athens Research & Technology (Athens, GA, USA). The enzyme activity was determined from kinetic measurements performed by fluorimetric detection of the hydrolysis product AMC at 37°C for 30 min at one-minute intervals using a Tecan SpectraFluor Plus plate-reader. The excitation and emission wavelengths were 360 and 485 nm, respectively. The fluorescent substrate Z-Arg-Arg-AMC (Bachem, Torrance, CA, USA) was used at a final concentration of 150 μM.
The enzyme was activated for 15 minutes with activator buffer (100 μl) containing 5 mM EDTA, 10 mM DTT (pH 5.2) at 37°C. The sample (1 μl) was added and the reaction mixtures were conducted during 45 min under dark (no irradiation) and light (irradiation at 250 W, 395–750 nm) conditions with a tungsten halogen lamp and H2O filter on separate plates. For the experiments under dark conditions, room lights were off and in addition the plate was covered with aluminum foil (light protection); the other plate was exposed to visible light for the same time period. The irradiation wavelength was selected by placing a 395 long-pass filter between the lamp and the sample, along with a 10 cm water cell to absorb infrared light. After photolysis, the reaction was initiated by addition of 200 μl of assay buffer (0.6 mM CaCl2, 0.6 mM MgCl2, 25 mM piperazin-N-N‘-bis[2-ethanosulfonic acid] (disodium salt)), pH 7.3 containing 150 μM Z-Arg-Arg-AMC substrate solution. Enzyme concentration was 10 nM. The experiments were carried out in triplicate in 96-well flat bottom black plates at pH 6.0. Enzyme activities are expressed as a percentage, with 100% equal to activity in the absence of inhibitor. IC50 values were determined by plotting percent activity vs. log (inhibitor concentration).

[5] = molecular target: T2, CTSB activity in MDA-MB-231 cell lysates (Homo sapiens, UniProt P07858); test: Inhibition of cellular cathepsin B activity in MDA-MB-231 cell lysates (Z-Arg-Arg-AMC); type: biochemical; conditions: for pIC50: MDA-MB-231 lysate
T2 construct: endogenous in cells; host or cells: MDA-MB-231 (ATCC) cell lysate
Protocol: (§2) TNBC cell lines were originally purchased from American Type Culture Collection (Rockville, MD, USA) and authenticated using the STR PowerPlex 16 system (Promega). Cells were cultured in basal medium supplemented with 10% fetal bovine serum (MDA-MB-231, DMEM; Hs578T, DMEM + 10 μg/ml bovine insulin). To prepare cell lysates, cells were grown on 100 mm dishes to ~80% confluency, washed twice with PBS (phosphate buffered saline), scraped and lysed in SME buffer (250 mM sucrose, 25 mM MES, 1 mM EDTA, pH 6.5, and 0.1% Triton X-100) and then sonicated on ice three times for 10 sec each. CTSB activity was measured as previously described. Briefly, 50 μl of cell lysate was incubated with 300 μl of activator buffer (5 mM EDTA, 10 mM DTT (pH 5.2) at 37°C during 15 min. The sample (1 μl) was added to 100 μl of the activator buffer containing cell lysate and the reaction mixtures were conducted during 45 min under dark (no irradiation) and light (irradiation at 250 W, 395–750 nm) conditions for 45 min with a tungsten halogen lamp and H2O filter on separate plates as described above. The experiments were carried out in triplicate (on 96-well flat bottom black plates) at pH 6.0.

[6] = molecular target: T3, CTSB activity in Hs578T cell lysates (Homo sapiens, UniProt P07858); test: Inhibition of cellular cathepsin B activity in Hs578T cell lysates (Z-Arg-Arg-AMC); type: biochemical; conditions: for pIC50: Hs578T lysate
T3 construct: endogenous in cells; host or cells: Hs578T (ATCC) cell lysate
Protocol: as §2

[7] = tested on: MDA-MB-231 3D MAME cultures; test: Cell viability (Live/Dead) assay, MDA-MB-231 3D MAME cultures; type: cell-based; conditions: in the dark or the light, 4 days
Protocol: (§3) Three-dimensional cultures of TNBC cells were established, grown and treated with compound 2 as described above. After 4 days, a cell viability assay was performed to assess the cytotoxic effects of compound 2. The assay has two components: Calcein AM that fluoresces green when cleaved by intracellular esterases thereby labeling live cells and Ethidium Homodimer-1 that fluoresces red when incorporated in the DNA of dead cells. A solution of 4 μM Ethidium Homodimer-1 and 2 μM Calcein AM was prepared in sterile PBS. Cultures were incubated for 30 minutes at 37°C, washed once with warm PBS and replenished with warm MEGM media for live cell imaging. The samples were then imaged at 10X magnification using a Zeiss 510 META confocal microscope. Tiled 16-panel images and z-stacks through the depth of structures were captured. The images were processed to show top views using Volocity software.

Hs578T 3D MAME cultures [8] = test: Cell viability (Live/Dead) assay, Hs578T 3D MAME cultures; type: cell-based; conditions: in the dark or the light, 4 days
Protocol: as §3

[9] = Stability in the dark, determined spectrophotometrically (ln A vs. t); type: physicochemical
Source text: This was expected because cis-[Ru(bpy)2Cl2] was used as a racemic mixture of Δ- and Λ stereoisomers. […] The electronic absorption spectrum of 2 is highly consistent with other dications of the general formula cis-[Ru(bpy)2(RCN)2]^2+, where RCN is MeCN,^130 5-cyanouracil,^124 and protease inhibitors structurally related to 1 [17–18]. Data for 2 in water containing 2% acetone show a maximum at 420 nm (ε = 10,360 M^-1cm^-1) assigned to a singlet metal-to-ligand charge transfer (^1MLCT) transition.

[10] = Photoinduced ligand exchange quantum yield; type: physicochemical
Protocol: Electronic absorption spectra were measured with a Hewlett-Packard 8453 diode array spectrophotometer. The ligand exchange quantum yield experiments were performed with a 150 W Xe arc lamp (USHIO) in a Milliarc lamp housing unit with an LPS-220 power supply and an LPS-221 igniter (PTI). A bandpass filter (Thorlabs) and long-pass filter (CVI Melles Griot) were used to select the appropriate irradiation wavelengths.
The photolysis experiments were performed in H2O with 2% acetone and in an acetone solution containing 0.25 M tetrabutylammonium, and the chloride (TBACl) in a 1 × 1 cm quartz cuvette, and the irradiation wavelengths were selected with a 395 nm long-pass filter. The photon flux of the arc lamp with a 335 nm long-pass filter and a 400 nm bandpass filter was determined to be 4.30 ± 0.25 × 10^−8 mol photons/min by ferrioxalate actinometry as previously described in detail. The quantum yields (Φ) for ligand dissociation of 2 were determined in each of the solvent systems in a 1 × 1 cm quartz cuvette. The decrease in the MLCT absorption maximum of the reactant with ε = 10,360 M^–1cm^–1 at 412 nm as a function of time was monitored at early irradiation times to calculate the rate of moles of reactant converted to intermediate, I. The increase of the MLCT absorption maximum of the product at 490 nm (ε = 9,300 M^–1cm^–1) was monitored at irradiation times after the formation of the intermediate to determine the rate of moles of product P formed. These rates along with the photon flux were used to calculate the quantum yields for the first and second steps, ΦR→I and ΦI→P, respectively.

Solubility (statement) = type: physicochemical
[11] = tested on: recombinant human CTSB expressed in baculovirus; design: method as in PMID 11741472; conditions: cited from earlier work
[12] = dark (no irradiation) 45 min, read-out: IC50 (dark)
[13] = light λirr = 395–750 nm, 45 min, read-out: IC50 (light)
[14] = acetone solution containing 0.25 M TBACl
[15] = water (2% acetone), λirr = 400 nm
[16] = uncaged compound 1, read-out: IC50

SMILES: CCCNC(=O)[C@H]1O[C@@H]1C(=O)N[C@H](C(=O)N1CCC[C@H]1C(=O)O)[C@@H](C)CC [CA074]
inhibition of cathepsin L (cathepsin L): not | cell permeability [1]: non-cell permeable

SMILES: CC#N.CC#N.F[P-](F)(F)(F)(F)F.F[P-](F)(F)(F)(F)F.[Ru+2].c1ccc(-c2ccccn2)nc1.c1ccc(-c2ccccn2)nc1 [compound 3, cis-[Ru(bpy)2(MeCN)2](PF6)2, reference compound]
inhibition of proteolysis (DQ-collagen IV) ([2]; MDA-MB-231, 1 μM, light vs. dark conditions, 4 days): did not inhibit proteolysis | inhibition of proteolysis (DQ-collagen IV) (Hs578T 3D MAME cultures [3]; 1 μM, light vs. dark conditions, 4 days): did not inhibit proteolysis

SMILES: Cc1cccc(CC(NC(=O)c2ccc(Cl)c(Cl)c2)C(=O)NCC#N)c1.Cc1cccc(CC(NC(=O)c2ccc(Cl)c(Cl)c2)C(=O)NCC#N)c1.F[B-](F)(F)F.F[B-](F)(F)F.[Ru+2].c1ccc(-c2ccccn2)nc1.c1ccc(-c2ccccn2)nc1 (mixture of isomers) [compound 2, Δ- and Λ-cis [Ru(bpy)2(1)2](BF4)2]
pIC50 [4, 12]: 5.47 | pIC50 ([4]; light λirr = 395–750 nm, 45 min, 250 W, read-out: IC50 (light)): 6.55 | dark/light IC50 ratio ([4]; purified CTSB): 12 | dark/light ratio ([5]; MDA-MB-231 cell lysates): 79.6 | pIC50 [5, 12]: 3.90 | pIC50 [5, 13]: 5.80 | dark/light ratio ([6]; Hs578T cell lysates): 12.6 | pIC50 [6, 12]: 4.95 | pIC50 [6, 13]: 6.05 | degradation of DQ-collagen IV ([2]; MDA-MB-231, 1 μM, exposed to visible light, 4 days): significantly reduced | inhibition of proteolysis in the dark ([2]; MDA-MB-231, higher concentrations than 1 μM, dark (data not shown)): significant inhibition of proteolysis | degradation of DQ-collagen IV (Hs578T 3D MAME cultures [3]; 1 μM, exposed to visible light, 4 days): significantly reduced | inhibition of proteolysis in the dark (Hs578T 3D MAME cultures [3]; higher concentrations than 1 μM, dark (data not shown)): significant inhibition of proteolysis | toxicity by cell viability assay [7]: did not observe any toxicity | toxicity by cell viability assay (Hs578T 3D MAME cultures [8]): did not observe any toxicity | kobs, rate constant for decomposition in the dark ([9]; DMSO, 293 ± 2 K): 1.6 ± 0.1 × 10^−7 s^-1 | kobs, rate constant for decomposition in the dark ([9]; phosphate buffered saline, pH 6.5, 293 ± 2 K): 1.2 ± 0.1 × 10^−6 s^-1 | quantum yield of ligand exchange, first step ΦR→I [10, 14]: 0.056(9) | quantum yield of ligand exchange, second step ΦI→P [10, 14]: 0.032 | quantum yield of ligand exchange, first step ΦR→I [10, 15]: 0.026(4) | quantum yield of ligand exchange, second step ΦI→P [10, 15]: 0.0045(9)

SMILES: CCCNC(=O)[C@H]1O[C@@H]1C(=O)N[C@H](C(=O)N1CCC[C@H]1C(=O)OC)[C@@H](C)CC [CA074Me]
inhibition of cathepsin L (cathepsin L): inhibits | cell permeability [1]: cell permeable

pIC50 [4, 16]: 6.48 | pIC50 [5, 16]: 5.81 | pIC50 [6, 16]: 6.04 | solubility in H2O (Solubility (statement)): low solubility
SMILES: Cc1cccc(C[C@H](NC(=O)c2ccc(Cl)c(Cl)c2)C(=O)NCC#N)c1 [compound 1, (S)-3,4-dichloro-N-(1-((cyanomethyl)amino)-1-oxo-3-(m-tolyl)propan-2-yl)benzamide]
total degradation of DQ-collagen IV ([2]; MDA-MB-231, 4 days of culture, concentration of 1 not given): significantly less degradation of DQ-collagen IV; also recorded: significant reductions | pericellular proteolysis (DQ-collagen IV) ([2]; MDA-MB-231, 4 days, concentration of 1 not given): significant reductions | total degradation of DQ-collagen IV (Hs578T 3D MAME cultures [3]; 4 days of culture, concentration of 1 not given): significantly less degradation of DQ-collagen IV; also recorded: significant reductions | pericellular proteolysis (DQ-collagen IV) (Hs578T 3D MAME cultures [3]; 4 days, concentration of 1 not given): significant reductions | inhibition of recombinant human CTSB [11]: potent, selective and reversible inhibitor
